experiment: water solubility / miscibility with water; type: physicochemical

Q: With CCCC[n+]1cccc(C)c1.N#C[N-]C#N [N-butyl-3-methylpyridinium dicyanamide, 3-Methyl-1-butylpyridinium dicyanamide] as the compound, how does the “water solubility (miscibility with water)” value (“water solubility” for short) read?
A: water-miscible

Q: Which “water solubility” value does the source give for CCCC[n+]1ccccc1.N#C[N-]C#N [N-butylpyridinium dicyanamide] here?
A: water-miscible

Q: Which “water solubility” value does the source give for CCCCCCCC[n+]1cccc(C)c1.N#C[N-]C#N [N-octyl-3-methylpyridinium dicyanamide, 3-Methyl-1-octylpyridinium dicyanamide] here?
A: water-immiscible

Q: Which “water solubility” value does the source give for CCCCCCCC[n+]1ccccc1.N#C[N-]C#N [N-octylpyridinium dicyanamide] here?
A: water-immiscible
